Assay results as given in patent publication US11998539B2, “Substituted aminoquinolones as DGKalpha inhibitors for immune activation” (Bayer Aktiengesellschaft, priority 2019, dated 2024).

These molecules were tested against DGKα (Homo sapiens (Human), UniProt P23743) (assay: Human DGKα kinase activity inhibition assay (ADP-Glo)). Details: recombinant full-length human DGKα, 55 μM ATP, 7 μM 1,2-dioleoyl-sn-glycerol, read-out: IC50 values of examples in in vitro human DGKa kinase activity inhibition assays.
Sequence of DGKα (P23743 other isoform, or with tags, fused parts or gaps): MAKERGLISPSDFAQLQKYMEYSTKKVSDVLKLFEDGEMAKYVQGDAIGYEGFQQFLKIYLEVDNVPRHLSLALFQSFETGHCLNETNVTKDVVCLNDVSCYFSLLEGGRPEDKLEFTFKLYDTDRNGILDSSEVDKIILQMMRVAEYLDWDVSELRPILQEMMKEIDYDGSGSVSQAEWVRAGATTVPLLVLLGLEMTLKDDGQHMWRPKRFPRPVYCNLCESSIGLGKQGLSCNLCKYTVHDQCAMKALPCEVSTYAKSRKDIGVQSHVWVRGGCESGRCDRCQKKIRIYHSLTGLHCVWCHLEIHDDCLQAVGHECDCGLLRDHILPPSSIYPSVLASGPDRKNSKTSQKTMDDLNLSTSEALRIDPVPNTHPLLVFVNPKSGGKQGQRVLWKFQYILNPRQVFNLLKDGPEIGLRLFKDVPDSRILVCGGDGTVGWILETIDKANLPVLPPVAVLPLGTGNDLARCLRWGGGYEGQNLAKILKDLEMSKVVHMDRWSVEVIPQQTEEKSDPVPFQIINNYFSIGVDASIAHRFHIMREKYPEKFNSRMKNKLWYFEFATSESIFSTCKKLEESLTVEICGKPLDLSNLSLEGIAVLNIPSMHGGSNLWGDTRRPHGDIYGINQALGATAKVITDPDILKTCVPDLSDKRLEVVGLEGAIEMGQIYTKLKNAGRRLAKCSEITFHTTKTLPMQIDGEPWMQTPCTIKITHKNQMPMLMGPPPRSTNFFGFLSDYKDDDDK
Type: biochemical
Procedure: Human DGKα Kinase Activity Inhibition Assay
Human DGKα inhibitory activity of compounds of the present invention was quantified employing the human DGKα kinase activity assay as described in the following paragraphs. In essence, the enzyme activity was measured by quantification of the adenosine-di-phosphate (ADP) generated as a co-product of the enzyme reaction via the “ADP-Glo™ Kinase Assay” kit from the company Promega. This detection system works as follows: In a first step the ATP not consumed in the kinase reaction is quantitatively converted to cAMP employing an adenylate cyclase (“ADP-Glo-reagent”), then the adenylate cyclase is stopped and the ADP generated in the kinase reaction converted to ATP, which subsequently generates in a luciferase-based reaction a glow-luminescence signal (“Kinase Detection Reagent”).
C-terminally FLAG-tagged, recombinant full-length human DGKα (expressed in baculovirus infected insect cells, purified using anti-Flag pulldown and size exclusion chromatography as described below, DGKa_hu_1) was used as enzyme. As substrate for the kinase 1,2-dioleoyl-sn-glycerol, reconstituted in octyl-β-D-glucopyranoside micelles, was used. […] Then 35 volumes of 50 mM MOPS buffer (pH 7.4) were added to yield a solution of 0.28 mM 1,2 dioleoyl-sn-glycerol and 200 mM […], which was aliquoted, flash-frozen in liquid nitrogen, and stored at −20° C. until use.
For the assay 50 nl of a 100-fold concentrated solution of the test compound in dimethyl sulfoxide (DMSO, Sigma) was pipetted into either a white 1536-well or a white low-volume 384-well microtiter plate (both Greiner Bio-One, Frickenhausen, Germany).

Compound	IC50
Cc1ccc2oc(C3(C)CCN(c4c(C#N)c(=O)n(C)c5ccc(OC6CC6)cc45)CC3)nc2c1 [Example 274, 6-(cyclopropyloxy)-1-methyl-4-[4-methyl-4-(5-methyl-1,3-benzoxazol-2-yl)piperidin-1-yl]-2-oxo-1,2-dihydroquinoline-3-carbonitrile]	152 nM
Cc1ccc2nc(C3(C)CCN(c4c(C#N)c(=O)n(C)c5ccc(Cl)cc45)CC3)oc2c1 [Example 192, 6-chloro-1-methyl-4-[4-methyl-4-(6-methyl-1,3-benzoxazol-2-yl)piperidin-1-yl]-2-oxo-1,2-dihydroquinoline-3-carbonitrile]	1360 nM
Cc1ccc2c(c1)c(N1CCC(C)(c3nc4ccccc4o3)CC1)c(C(N)=O)c(=O)n2C [Example 195, 4-[4-(1,3-benzoxazol-2-yl)-4-methylpiperidin-1-yl]-1,6-dimethyl-2-oxo-1,2-dihydroquinoline-3-carboxamide]	1.5 nM
Cc1ccc2oc(C3CCN(c4c(C(N)=O)c(=O)n(C)c5cc(N(C)CCO)ccc45)CC3)nc2c1 [Example 495, 7-[(2-hydroxyethyl)(methyl)amino]-1-methyl-4-[4-(5-methyl-1,3-benzoxazol-2-yl)piperidin-1-yl]-2-oxo-1,2-dihydroquinoline-3-carboxamide]	1.4 nM
Cn1c(=O)c(C#N)c(N2CCC(c3nc4ccccc4o3)CC2)c2ccc(C(F)(F)F)cc21 [Example 291, 4-[4-(1,3-benzoxazol-2-yl)piperidin-1-yl]-1-methyl-2-oxo-7-(trifluoromethyl)-1,2-dihydroquinoline-3-carbonitrile]	11 nM
Cc1ccc2oc(C3CCN(c4c(C#N)c(=O)n(C)c5cc(F)ccc45)CC3)nc2c1 [Example 238, 7-fluoro-1-methyl-4-[4-(5-methyl-1,3-benzoxazol-2-yl)piperidin-1-yl]-2-oxo-1,2-dihydroquinoline-3-carbonitrile]	12 nM
Cn1c(=O)c(C(N)=O)c(N2CCC(C)(c3nc4ccccc4o3)CC2)c2ccc(Cl)cc21 [Example 297, 4-[4-(1,3-benzoxazol-2-yl)-4-methylpiperidin-1-yl]-7-chloro-1-methyl-2-oxo-1,2-dihydroquinoline-3-carboxamide]	0.6 nM
Cc1ccc(-c2csc(C3CCN(c4c(C#N)c(=O)n(C)c5ccccc45)CC3)n2)cc1 [Example 374, 1-methyl-4-{4-[4-(4-methylphenyl)-1,3-thiazol-2-yl]piperidin-1-yl}-2-oxo-1,2-dihydroquinoline-3-carbonitrile]	34 nM
Cn1c(=O)c(C#N)c(N2CCC(c3ccc(Br)cc3)CC2)c2ccccc21 [Example 88, 4-[4-(4-bromophenyl)piperidin-1-yl]-1-methyl-2-oxo-1,2-dihydroquinoline-3-carbonitrile]	47 nM
Cc1ccc2oc(C3CCN(c4c(C#N)c(=O)n(C)c5cc(O[C@@H]6CCOC6)c(Br)cc45)CC3)nc2c1 [Example 537, (−)-6-bromo-1-methyl-4-[4-(5-methyl-1,3-benzoxazol-2-yl)piperidin-1-yl]-2-oxo-7-{[(3R)-oxolan-3-yl]oxy}-1,2-dihydroquinoline-3-carbonitrile]	0.2 nM
Cn1c(=O)c(C#N)c(N2CCC(c3ccc(Oc4ccccc4)cc3)CC2)c2ccccc21 [Example 56, 1-methyl-2-oxo-4-[4-(4-phenoxyphenyl)piperidin-1-yl]-1,2-dihydroquinoline-3-carbonitrile]	17 nM
Cn1c(=O)c(C#N)c(N2CCC(c3ccccc3)CC2)c2ccc(Br)cc21 [Example 90, 7-bromo-1-methyl-2-oxo-4-(4-phenylpiperidin-1-yl)-1,2-dihydroquinoline-3-carbonitrile]	5.5 nM
Cc1ccc2oc(C3CCN(c4c(C#N)c(=O)n(C)c5c(Cl)cccc45)CC3)nc2c1 [Example 232, 8-chloro-1-methyl-4-[4-(5-methyl-1,3-benzoxazol-2-yl)piperidin-1-yl]-2-oxo-1,2-dihydroquinoline-3-carbonitrile]	163 nM
Cn1c(=O)c(C#N)c(N2CCC(c3nc4ccccc4s3)CC2)c2ccc(N3CCCC3=O)cc21 [Example 36, 4-[4-(1,3-benzothiazol-2-yl)piperidin-1-yl]-1-methyl-2-oxo-7-(2-oxopyrrolidin-1-yl)-1,2-dihydroquinoline-3-carbonitrile]	8.3 nM
Cn1c(=O)c(C#N)c(N2CCC(c3nc4ccccc4s3)CC2)c2cc(C3CC3)ccc21 [Example 276, 4-[4-(1,3-benzothiazol-2-yl)piperidin-1-yl]-6-cyclopropyl-1-methyl-2-oxo-1,2-dihydroquinoline-3-carbonitrile]	216 nM
Cc1ccc2oc(C3CCN(c4c(C#N)c(=O)n(C)c5cc(OC6CCOCC6)ccc45)CC3)nc2c1 [Example 382, 1-methyl-4-[4-(5-methyl-1,3-benzoxazol-2-yl)piperidin-1-yl]-7-[(oxan-4-yl)oxy]-2-oxo-1,2-dihydroquinoline-3-carbonitrile]	13 nM
COc1ccc(C2CCN(c3c(C(N)=O)c(=O)n(C)c4cc(C5COC5)ccc34)CC2)cc1 [Example 115, 4-[4-(4-methoxyphenyl)piperidin-1-yl]-1-methyl-7-(oxetan-3-yl)-2-oxo-1,2-dihydroquinoline-3-carboxamide]	20 nM
Cc1ccc2oc(C3CCN(c4c(C#N)c(=O)n(C)c5cc(NC6COC6)c(C)cc45)CC3)nc2c1 [Example 549, 1,6-dimethyl-4-[4-(5-methyl-1,3-benzoxazol-2-yl)piperidin-1-yl]-7-[(oxetan-3-yl)amino]-2-oxo-1,2-dihydroquinoline-3-carbonitrile]	0.6 nM
Cc1ccccc1-c1nnc(C2CCN(c3c(C(N)=O)c(=O)n(C)c4cc(O)c(Br)cc34)CC2)o1 [Example 529, 6-bromo-7-hydroxy-1-methyl-4-{4-[5-(2-methylphenyl)-1,3,4-oxadiazol-2-yl]piperidin-1-yl}-2-oxo-1,2-dihydroquinoline-3-carboxamide]	46 nM
Cc1ccc2oc(C3CCN(c4c(C#N)c(=O)n(C)c5ccc(C6CCC6(C)C)cc45)CC3)nc2c1 (centres unmarked) [Example 410, 6-[2,2-dimethylcyclobutyl]-1-methyl-4-[4-(5-methyl-1,3-benzoxazol-2-yl)piperidin-1-yl]-2-oxo-1,2-dihydroquinoline-3-carbonitrile]	51 nM
COc1cc2c(cc1Br)c(N1CCC(c3nc(-c4ccccc4C)no3)CC1)c(C#N)c(=O)n2C [Example 530, 6-bromo-7-methoxy-1-methyl-4-{4-[3-(2-methylphenyl)-1,2,4-oxadiazol-5-yl]piperidin-1-yl}-2-oxo-1,2-dihydroquinoline-3-carbonitrile]	1.8 nM
Cc1ccc2oc(C3(C)CCN(c4c(C#N)c(=O)n(C)c5cc(C)ccc45)CC3)nc2c1 [Example 220, 1,7-dimethyl-4-[4-methyl-4-(5-methyl-1,3-benzoxazol-2-yl)piperidin-1-yl]-2-oxo-1,2-dihydroquinoline-3-carbonitrile]	1.7 nM
Cc1ccc2oc(C3CCN(c4c(C#N)c(=O)n(C)c5cc(Br)ccc45)CC3)nc2c1 [Example 281, 7-bromo-1-methyl-4-[4-(5-methyl-1,3-benzoxazol-2-yl)piperidin-1-yl]-2-oxo-1,2-dihydroquinoline-3-carbonitrile]	8.9 nM
COc1ccc2c(N3CCC(c4nc5cc(Cl)ccc5o4)CC3)c(C#N)c(=O)n(C)c2c1 [Example 259, 4-[4-(5-chloro-1,3-benzoxazol-2-yl)piperidin-1-yl]-7-methoxy-1-methyl-2-oxo-1,2-dihydroquinoline-3-carbonitrile]	29 nM
Cc1ccc2c(c1)c(N1CCC(c3nc4cc(Cl)ccc4o3)CC1)c(C#N)c(=O)n2C [Example 185, 4-[4-(5-chloro-1,3-benzoxazol-2-yl)piperidin-1-yl]-1,6-dimethyl-2-oxo-1,2-dihydroquinoline-3-carbonitrile]	2.9 nM
Cc1ccc(-c2csc(C3CCN(c4c(C(N)=O)c(=O)n(C)c5ccccc45)CC3)n2)cc1 [Example 478, 1-methyl-4-{4-[4-(4-methylphenyl)-1,3-thiazol-2-yl]piperidin-1-yl}-2-oxo-1,2-dihydroquinoline-3-carboxamide]	9.4 nM
COc1ccc(C2CCN(c3c(C#N)c(=O)n(C)c4cc(-c5ccccc5)ccc34)CC2)cc1 [Example 92, 4-[4-(4-methoxyphenyl)piperidin-1-yl]-1-methyl-2-oxo-7-phenyl-1,2-dihydroquinoline-3-carbonitrile]	9.8 nM
Cn1c(=O)c(C#N)c(N2CCC(c3nc4ccc(C5COC5)cc4o3)CC2)c2ccccc21 [Example 388, 1-methyl-4-{4-[6-(oxetan-3-yl)-1,3-benzoxazol-2-yl]piperidin-1-yl}-2-oxo-1,2-dihydroquinoline-3-carbonitrile]	33 nM
Cn1c(=O)c(C#N)c(N2CCC(c3ccc(OCC(F)(F)F)cc3)CC2)c2ccccc21 [Example 37, 1-methyl-2-oxo-4-{4-[4-(2,2,2-trifluoroethoxy)phenyl]piperidin-1-yl}-1,2-dihydroquinoline-3-carbonitrile]	1.1 nM
